The structures appear in SMILES notation. “Also recorded” adds a separate entry of the source.

Data set [1] concerns abca4 −/− mice. Kind of data set: A2E levels after withdrawal of chronic treatment. The settings on record: chronic treatment (HPR 10 mg/kg i.p.) stopped after 28 days; measured 12, 28 and 42 days later. The class given is in vivo, mouse. Here is the method:
Latent Effects of HPR on Arresting A2E Accumulation —One feature identified during the HPR trials was a therapeutic latency effect following withdrawal of HPR. In these studies, chronic treatment of abca4 −/− mice (10 mg HPR/kg, i.p.) was stopped after 28 days. A2E levels were then measured 12, 28 and 42 days following the final HPR dose. […] This effect was not observed in animals treated with 13-cis retinoic acid, a result that may be due to the capacity of RPE cells to adapt to, and maintain, low steady-state retinoid levels. […] These findings indicate that high steady-state levels of competitive inhibitors such as 13-cis retinoic acid must be maintained for therapeutic efficacy.

The subject of the next data set is abca4 null mutant mice. Kind of data set: A2E and A2PE-H2 in eyes after chronic treatment (HPLC). The class given is in vivo, mouse. The protocol:
Tissue Extraction. Eye samples were thawed on ice in 1 ml of PBS, pH 7.2 and homogenized by hand using a Duall glass-glass homogenizer. The sample was further homogenized following the addition of 1 ml chlorofomm/methanol (2:1, v/v). The sample was transferred to a boroscilicate tube and lipids were extracted into 4 mls of chloroform. The organic extract was washed with 3 mls PBS, pH 7.2 and the samples were then centrifuged at 3,000×g, 10 min. The choloroform phase was decanted and the aqueous phase was re-extracted with another 4 mls of chloroform. Following centrifugation, the chloroform phases were combined and the samples were taken to dryness under nitrogen gas. Samples residues were resuspended in 100 μl hexane and analyzed by HPLC as described below.
HPLC Analysis. Chromatographic separations were achieved on an Agilent Zorbax Rx-Sil Column (5 μm, 4.6×250 mm) using an Agilent 1100 series liquid chromatograph equipped with fluorescence and diode array detectors. The mobile phase (hexane/2-propanol/ethanol/25 mM KH2PO4, pH 7.0/acetic acid; 485/376/100/50/0.275, v/v) was delivered at 1 ml/min. Sample peak identification was made by comparison to retention time and absorbance spectra of authentic standards. Data are reported as peak fluorescence (L.U.) obtained from the fluorescence detector.
We initiated a one-month study to evaluate the effects of HPR on reduction of A2E and A2E precursors in abca4 null mutant mice. HPR was administered in DMSO (20 mg/kg, ip) to abca4 null mutant mice (BL6/129, aged 2 months) daily for a period of 28 days. Control age/strain matched mice received only the DMSO vehicle. Mice were sampled at 0, 14, and 28 days (n=3 per group), the eyes were enucleated and chloroform-soluble constituents (lipids, retinoids and lipid-retinoid conjugates) were extracted. Mice were sacrificed by cervical dislocation, the eyes were enucleated and individually snap frozen in cryo vials. The sample extracts were then analyzed by HPLC with on-line fluorescence detection. Results from this study show remarkable, early reductions in the A2E precursor, A2PE-H2, see FIG. 4a, and subsequent reductions in A2E, see FIG. 4b. […] A similar study may be undertaken to ascertain effects of HPR treatment on the electroretinographic and morphological phenotypes.
ABCA4 null mutant mice were given the indicated dose of HPR in DMSO or DMSO alone daily for 28 days (n=16 mice per treatment group). At study onset, mice in the 2.5 mg/kg group were 2 months of age, mice in the other treatment groups were 3 months of age. At the indicated times, representative mice were taken from each group (n =4) for analysis of A2E precursor compounds (see FIG. 10, A2PE-H2, panels A, C and E) and A2E (see FIG. 10, panels B, D and F). Eyes were enucleated, hemisected and lipid soluble components were extracted from the posterior pole by chloroform/methanol-water phase partitioning. Sample extracts were analyzed by LC. Identity of the eluted compounds was confirmed by UV-vis absorption spectroscopy and co-elution of sample peaks with authentic standards. Note: limitations in appropriately age and strain-matched mice in the 10 mg/kg group prevented analysis at the 14-day interval.
Extraction and Analysis of Retinoids and A2E. Steady-state levels of retinoids and A2E in eyecups of ABCA4−/− mice were determined following daily administration (28 days) of HPR (FIG. 12). Mice were sacrificed, the eyes enucleated, and the posterior portion of each eye was used for extraction of retinoids or A2E. Methodologies used for extraction of retinoids and A2E from eye tissue and HPLC analysis techniques have been described. See, e.g., Mata N L, Weng J, Travis G H. Biosynthesis of a major lipofuscin fluorophore in mice and humans with ABCR-mediated retinal and macular degeneration. Proc Natl Acad Sci USA. 2000; 97:7154-7159; Weng J, et al.; Cell. 1999;98:13-23; Mata N L, et al.; Invest. Ophthalmol. Visual Sci. 2001; 42:1685-1690. […]

The subject of data set [2] is abca4 −/− mice. Kind of data set: HPR and retinaldehyde content after 7 days, dark- and light-adapted. The class given is in vivo, mouse. The settings on record: HPR 10 mg/kg/day. Here is the method: The effect of HPR on visual chromophore biosynthesis was examined in a separate study in which a […] of HPR (10 mg/kg/day) was administered to abca4 −/− mice over a 7-day period.

A short description of data set [3]: Steady-state retinoid levels and visual chromophore regeneration after 28 days of HPR. The settings on record: abca4 -/- (knockout line; background strain not stated), mouse, RPE tissue, intraperitoneal, HPR 10 mg/kg, read-out: HPR present within RPE tissue. The class given is in vivo, mouse. Here is the method:
(§1) Both steady-state retinoid levels and rates of visual chromophore regeneration were evaluated in abca4 −/− mice following a 28-day treatment period with 10 mg/kg HPR. Light-adapted levels of all visual cycle retinoids were reduced by ˜50% compared to control animals receiving only DMSO (FIG. 16A). Although HPR was present within RPE tissue (˜10 μM), the rate of rhodopsin regeneration (FIG. 16B) and removal of bleached photoproduct (Figure 16C) were not affected. The calculated time constant for regeneration of visual chromophore was nearly identical for both DMSO- and HPR-treated mice (0.37 h time constant to fully regenerate visual chromophore, FIG. 16D).
(§2) Panels D-F of FIG. 9 are electrophysiological measurements of rod function (panel D), rod and cone function (panel E) and recovery from photobleaching (panel F).

In data set [4] the test system is abca4 −/− mice. Described as above. Type of data set: in vivo, mouse. Here is the method:
as §1, §2

The test system of the next data set is abcr null mutant mice. Kind of data set: Lipofuscin autofluorescence in RPE and light microscopy of retina. Type of data set: in vivo, mouse.
For data set [5] the following is noted: cited from earlier work.

Consider `CC1=C(/C=C/C(C)=C/C=C/C(C)=C/C(=O)Nc2ccc(O)cc2)C(C)(C)CCC1` [HPR, N-(4-hydroxyphenyl)retinamide], for which, in the data set with abca4 −/− mice [1], the “A2E levels after withdrawal (therapeutic latency effect)” value is reported as “remained persistently low for several weeks”. The “reduction in A2PE-H2” value in the data set on abca4 null mutant mice (HPR 2.5 mg/kg daily, 28 days, 2-month old mice) was about 47%. Further, in the data set on abca4 null mutant mice (HPR 10 mg/kg daily, 28 days), the “less A2E accumulated compared to DMSO littermates” value is reported as about 50%. For the same compound, in the data set on abca4 null mutant mice (HPR 20 mg/kg ip daily, 28 days), the “reduction of A2E” value was 55% and the “reduction of A2PE-H2” value was determined as 70%. The “accumulation of A2E and lipofuscin autofluorescence in the RPE (in words)” value with abca4 null mutant mice (mouse, in vivo) is “arrested accumulation”. For the same compound, the “effect on steady-state retinal levels or regeneration of visual chromophore” value in the data set on abca4 −/− mice [2] is reported as “essentially no effect”. The concentration at 28 days in data set [3] is about 10 µM. Besides, in the data set with abca4 −/− mice [4] (HPR 10 mg/kg), the “removal of bleached photoproduct” value is given as “not affected”. Further, the “regeneration of visual chromophore (rate of rhodopsin regeneration)” value in the data set on abca4 −/− mice [4] (HPR 10 mg/kg daily) is recorded as “not affected; also recorded: does not affect; also recorded: normal”. For the same compound, the “calculated time constant to fully regenerate visual chromophore” value in the data set on abca4 −/− mice [4] (HPR 10 mg/kg, nearly identical for DMSO) is 0.37 h. In the data set with abcr null mutant mice (HPR daily for 28 days), the “lipofuscin autofluorescence in the RPE” value is “significantly reduces; also recorded: less than that of an age-matched wild-type animal”. In addition, the “retinal morphology (light microscopy)” value in the data set with abcr null mutant mice (HPR-treated animals) is “no aberrant morphology”. Also, the observed toxicities entry in data set [5] (4800 mg/m^2 dose, three times daily) is recorded as “minimal”. For the same compound, the “plasma concentration after high fat meals versus carbohydrate meals” value in data set [5] (human, in vivo) is listed as “three times greater”.
